{
  "source": "patent US9169247B2",
  "about": "“Tetrahydro-beta-carboline derivatives, synthesis and use thereof” (Southern Research Institute, priority 2009, dated 2015)",
  "key": {"A498": {"test_system": "A498", "experiment": "Growth assay (Cell Titer Glo)", "format": "cell-based", "details": "Homo sapiens; A498, renal", "how_it_was_run": "(§1)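 Cells in RPMI 1640 with 5% FBS were seeded at 5,000 cells/well and allowed 18-24 h before compound addition at 0.1% final DMSO. Viability was read by luminescence 72 h after treatment, and IC50 values came from four-parameter logistic fits of dose-response curves.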"}, "A549": {"test_system": "A549", "experiment": "Growth assay (Cell Titer Glo)", "format": "cell-based", "details": "Homo sapiens; A549, lung", "how_it_was_run": "as §1"}, "BT-549": {"test_system": "BT-549", "experiment": "Growth assay (Cell Titer Glo)", "format": "cell-based", "details": "Homo sapiens; BT-549, breast", "how_it_was_run": "as §1"}, "COLO205": {"test_system": "COLO205", "experiment": "Growth assay (Cell Titer Glo)", "format": "cell-based", "details": "Homo sapiens, COLO 205; COLO205, colon", "how_it_was_run": "as §1"}, "HCC-2998": {"test_system": "HCC-2998", "experiment": "Growth assay (Cell Titer Glo)", "format": "cell-based", "details": "Homo sapiens; HCC-2998, colon", "how_it_was_run": "as §1"}, "HOP-92": {"test_system": "HOP-92", "experiment": "Growth assay (Cell Titer Glo)", "format": "cell-based", "details": "Homo sapiens; HOP-92, lung", "how_it_was_run": "as §1"}, "Hs578T": {"test_system": "Hs578T", "experiment": "Growth assay (Cell Titer Glo)", "format": "cell-based", "details": "Homo sapiens, Hs-578T, breast", "how_it_was_run": "as §1"}, "K562": {"test_system": "K562", "experiment": "Growth assay (Cell Titer Glo)", "format": "cell-based", "details": "Homo sapiens; K562, hematopoietic", "how_it_was_run": "as §1"}, "MDA-MB-435": {"test_system": "MDA-MB-435", "experiment": "Growth assay (Cell Titer Glo)", "format": "cell-based", "details": "Homo sapiens; MDA-MB-435, melanoma", "how_it_was_run": "as §1"}, "MDA-MB-468": {"test_system": "MDA-MB-468", "experiment": "Growth assay (Cell Titer Glo)", "format": "cell-based", "details": "Homo sapiens; MDA-MB-468, breast", "how_it_was_run": "as §1"}, "NCI-ADR-RES": {"test_system": "NCI-ADR-RES", "experiment": "Growth assay (Cell Titer Glo)", "format": "cell-based", "details": "Homo sapiens, multi-drug resistant", "how_it_was_run": "as §1"}, "NCI-H226": {"test_system": "NCI-H226", "experiment": "Growth assay (Cell Titer Glo)", "format": "cell-based", "details": "Homo sapiens; NCI-H226, lung", "how_it_was_run": "as §1"}, "NCI-H522": {"test_system": "NCI-H522", "experiment": "Growth assay (Cell Titer Glo)", "format": "cell-based", "details": "Homo sapiens; NCI-H522, lung", "how_it_was_run": "as §1"}, "OVCAR-3": {"test_system": "OVCAR-3", "experiment": "Growth assay (Cell Titer Glo)", "format": "cell-based", "details": "Homo sapiens; OVCAR-3, ovarian", "how_it_was_run": "as §1"}, "SF-295": {"test_system": "SF-295", "experiment": "Growth assay (Cell Titer Glo)", "format": "cell-based", "details": "Homo sapiens; SF-295, CNS", "how_it_was_run": "as §1"}, "SK-MEL-2": {"test_system": "SK-MEL-2", "experiment": "Growth assay (Cell Titer Glo)", "format": "cell-based", "details": "Homo sapiens; SK-MEL-2, melanoma", "how_it_was_run": "as §1"}, "SK-MEL-5": {"test_system": "SK-MEL-5", "experiment": "Growth assay (Cell Titer Glo)", "format": "cell-based", "details": "Homo sapiens; SK-MEL-5, melanoma", "how_it_was_run": "as §1"}, "SN12C": {"test_system": "SN12C", "experiment": "Growth assay (Cell Titer Glo)", "format": "cell-based", "details": "Homo sapiens, renal", "how_it_was_run": "as §1"}, "SW-620": {"test_system": "SW-620", "experiment": "Growth assay (Cell Titer Glo)", "format": "cell-based", "details": "Homo sapiens; SW-620, colon", "how_it_was_run": "as §1"}, "U251": {"test_system": "U251", "experiment": "Growth assay (Cell Titer Glo)", "format": "cell-based", "details": "Homo sapiens, U-251; U251, CNS", "how_it_was_run": "as §1"}, "HT-29": {"test_system": "HT-29", "experiment": "Growth assay (Cell Titer Glo)", "format": "cell-based, human", "details": "HT-29 colon", "protocol": "(§2) Compounds 2a-h were tested for tumor cell growth inhibitory activity using the human breast MDA-MB-231 and ZR75-1 tumor cell lines and the colon CACO-2, SW-1116, and HT-29 tumor cell lines.\n(§3) All human tumor cell lines were obtained from ATCC and grown under standard cell culture conditions at 37° C. in a humidified atmosphere with 5% CO2. Cells were grown in RPMI 1640 supplemented with 5% fetal bovine serum 2 mM glutamine, 100 units/ml penicillin, 100 units/ml streptomycin, and 0.25 μg/ml amphotericin. Cells were harvested at 70 to 90% confluence with trypsin/EDTA and used immediately Cell count and viability was determined by Trypan blue staining followed by hemocytometry. Only cultures displaying >95% cell viability were used for experiments. HMEC were grown according to the specifications from the supplier (Lonzo).\n(§4) Tissue culture microtiter 96-well plates were seeded with cells at a density of 5,000 cells/well. The plates were incubated for 18-24 hours prior to any treatment. All test compounds were solubilized in 100% DMSO and diluted with media to obtain a final DMSO concentration of 0.1%. Cell viability was measured 72 hours after treatment by the Cell Titer Glo Assay (Promega), which is a luminescent assay that is an indicator of live cells as a function of metabolic activity and ATP content. The assay was performed according to manufacturer's specifications. Luminescence was measured by a Perkin Elmer Victor® multi-label plate reader.^6\n(§5) Dose response curves were analyzed using Prism™ 4 software (GraphPad) to calculate IC50 values using a four parameter logistic equation."}, "[1]": {"test_system": "human Caki-1 renal tumor cell line", "experiment": "Growth assay (Cell Titer Glo)", "format": "cell-based", "protocol": "(§6) FIGS. 3A-B illustrate the anticancer activity of compound 2j. […] The cells with treated for 72 hours prior to measuring cell viability using the Cell Titer Glo assay (Promega Corp.). […] Tumor bearing mice were treated at a dose of 10 mg/kg one time per day for 22 days.\nas §3, with “HMEC were grown according to the specifications from the supplier (Lonzo).” left out\nTissue culture microtiter 96-well plates were seeded with cells at a density of 5,000 cells/well. […] Cell viability was measured 72 hours after treatment by the Cell Titer Glo Assay (Promega), which is a luminescent assay that is an indicator of live cells as a function of metabolic activity and ATP content. […] Luminescence was measured by a Perkin Elmer Victor® multi-label plate reader.^6\nas §5"}, "[2]": {"test_system": "human Caki-1 renal tumor mouse xenograft", "experiment": "Caki-1 renal tumor mouse xenograft model", "format": "in vivo", "details": "10 mg/kg one time per day for 22 days; FIG. 3B", "protocol": "as §6"}, "CACO-2": {"test_system": "CACO-2", "experiment": "Growth assay (Cell Titer Glo)", "format": "cell-based", "details": "Homo sapiens; CACO-2 colon; 72 h", "protocol": "as §2, §3, §4, §5"}, "[3]": {"test_system": "normal human mammary epithelial cells (HMEC)", "experiment": "Cytotoxicity to normal cells (growth assay)", "format": "cell-based", "details": "up to a concentration of 10 μM", "protocol": "as §3, §4"}, "[4]": {"test_system": "human MDA-MB-231 breast tumor cells", "experiment": "cGMP assay (intracellular cGMP, immunoassay)", "format": "cell-based", "details": "treated for 30 minutes, FIG. 1", "protocol": "FIG. 1A illustrates the induction of intracellular cGMP levels in cultured human MDA-MB-231 breast tumor cells treated for 30 minutes with compound 2f. […] The + indicates the effects of a positive control, sulindac sulfide tested at 100 μM. The cells were treated for 30 minutes prior to measuring intracellular cGMP levels by immunoassay. The * indicates statistical significance with p<0.05.\nCells were seeded at a density of 1×10^6 cells per 10 cm tissue culture dish, incubated for 48 hours, and treated with the specified compound or vehicle control. After 30 minutes of treatment, cells were lysed and assayed for cGMP content using the cGMP Direct Biotrak EIA kit (GE Biosciences). The assay was performed according to the manufacturer's specifications. Optical density was measured at 630 nm using a Synergy4 (BioTek) plate reader."}, "cGMP phosphodiesterase": {"test_system": "cGMP phosphodiesterase", "experiment": "cGMP phosphodiesterase activity in whole cell lysates (fluorescence polarization)", "format": "biochemical, human", "details": "lysates from MDA-MB-231 cells treated for 18 hours; FIG. 2", "protocol": "FIG. 2 illustrates cGMP phosphodiesterase inhibitory activity of compound 2f. Whole cell lysates from human MDA-MB-231 breast tumor cells treated for 18 hours with compound 2f were assayed for cGMP phosphodiesterase activity using a fluorescence polarization assay (Molecular Devices Inc)."}},
  "note": "“Also recorded” adds a separate entry of the source. Where two headings read alike, the source gives them in different places.",
  "data": [
    {"smiles": "COC(=O)[C@H]1Cc2c([nH]c3ccccc23)[C@H](c2ccc(Cl)cc2Cl)N1C(=O)CCl", "note": "[Compound 2j, (1S,3R) Methyl 1-(2,4-dichlorophenyl)-2-(2-chloroacetyl)-2,3,4,9-tetrahydro-1H-β-carboline-3-carboxylate]", "values": [
      {"measurement": "IC50", "setting": "A498", "result": 96, "unit": "nM"},
      {"measurement": "IC50", "setting": "A549", "result": "> 3000", "unit": "nM"},
      {"measurement": "IC50", "setting": "BT-549", "result": 760, "unit": "nM"},
      {"measurement": "IC50", "setting": "COLO205", "result": 1440, "unit": "nM"},
      {"measurement": "IC50", "setting": "HCC-2998", "result": 2260, "unit": "nM"},
      {"measurement": "IC50", "setting": "HOP-92", "result": 20, "unit": "nM"},
      {"measurement": "IC50", "setting": "Hs578T", "result": 220, "unit": "nM"},
      {"measurement": "IC50", "setting": "K562", "result": 1250, "unit": "nM"},
      {"measurement": "IC50", "setting": "MDA-MB-435", "result": 640, "unit": "nM"},
      {"measurement": "IC50", "setting": "MDA-MB-468", "result": 130, "unit": "nM"},
      {"measurement": "IC50", "setting": "NCI-ADR-RES", "result": 20, "unit": "nM"},
      {"measurement": "IC50", "setting": "NCI-H226", "result": 1410, "unit": "nM"},
      {"measurement": "IC50", "setting": "NCI-H522", "result": 16, "unit": "nM"},
      {"measurement": "IC50", "setting": "OVCAR-3", "result": 130, "unit": "nM"},
      {"measurement": "IC50", "setting": "SF-295", "result": 70, "unit": "nM"},
      {"measurement": "IC50", "setting": "SK-MEL-2", "result": 920, "unit": "nM"},
      {"measurement": "IC50", "setting": "SK-MEL-5", "result": "> 3000", "unit": "nM"},
      {"measurement": "IC50", "setting": "SN12C", "result": "> 3000", "unit": "nM"},
      {"measurement": "IC50", "setting": "SW-620", "result": 2750, "unit": "nM"},
      {"measurement": "IC50", "setting": "U251", "result": 1880, "unit": "nM"},
      {"measurement": "IC50", "setting": "HT-29; Homo sapiens, HT-29, 72 h", "result": 0.65, "unit": "µM"},
      {"measurement": "IC50", "setting": "[1]; CAKI-1, 72 h, FIG. 3A legend, read-out: IC50 value, tumor cell growth", "result": 2.3, "unit": "nM"},
      {"measurement": "in vivo tumor growth", "setting": "[2]", "result": "strongly suppressed tumor growth; also recorded: strong in vivo antitumor activity"},
      {"measurement": "melting point", "result": "106 to 109", "unit": "°C"}
    ]},
    {"smiles": "COC(=O)[C@H]1Cc2c([nH]c3ccccc23)[C@H](c2cc(OC)ccc2OC)N1C(=O)CCl", "note": "[Compound 2f, Methyl (1S,3R)-1-(2,5-dimethoxyphenyl)-2-(2-chloroacetyl)-2,3,4,9-tetrahydro-1H-β-carboline-3-carboxylate]", "values": [
      {"measurement": "IC50", "setting": "NCI-ADR-RES", "result": 23, "unit": "nM"},
      {"measurement": "IC50", "setting": "SN12C", "result": 375, "unit": "nM"},
      {"measurement": "IC50", "setting": "SW-620", "result": 3310, "unit": "nM"},
      {"measurement": "IC50", "setting": "U251", "result": 259, "unit": "nM"},
      {"measurement": "IC50", "setting": "CACO-2", "result": 0.01, "unit": "µM"},
      {"measurement": "IC50", "setting": "HT-29; 72 h", "result": 0.452, "unit": "µM"},
      {"measurement": "IC50", "setting": "HT-29; Homo sapiens, HT-29, 72 h", "result": 0.45, "unit": "µM"},
      {"measurement": "IC50", "setting": "[1]; CAKI-1, CAKI-1, renal, read-out: IC50", "result": "< 6", "unit": "nM"},
      {"measurement": "cytotoxicity to normal human mammary epithelial cells (HMEC)", "setting": "[3]", "result": "insensitive; also recorded: no cytotoxicity"},
      {"measurement": "intracellular cGMP levels", "setting": "[4]", "result": "induction; also recorded: increase"},
      {"measurement": "cGMP PDE activity in lysates", "setting": "cGMP phosphodiesterase", "result": "selectively inhibited"},
      {"measurement": "melting point", "result": 232, "unit": "°C"}
    ]}
  ]
}
